The subject of test [1] is SR. Description: Antiproliferative activity against human SR cells assessed as inhibition of cell growth incubated for 72 hrs by CCK8 assay. The test is classed as functional, cell-based.
Test [2] has as its target T1, ALK tyrosine kinase receptor (Homo sapiens, UniProt Q9UM73). Description: Induction of ALK degradation in human SR cells assessed as protein stability at 50 ug/ml after 24 hrs. It counts as cell-based. Conditions: dose 50.0 µg/ml.
For test [3], the target named is Protein-tyrosine kinase 2-beta (Homo sapiens) (UniProt Q14289). Description: Induction of PYK2 degradation in human MDA-MB-231 cells assessed as protein stability at 50 ug/ml after 8 hrs. It counts as cell-based. The conditions noted are these: dose 50.0 µg/ml.
Test [4] deals with Focal adhesion kinase 1 (Homo sapiens) (UniProt Q05397). Description: Induction of FAK degradation in human MDA-MB-231 cells assessed as protein stability at 50 ug/ml after 8 hrs. The conditions noted are these: dose 50.0 µg/ml. It counts as cell-based.
Test [5] has as its target T1, ALK tyrosine kinase receptor. Description: Induction of ALK degradation in human SR cells at 500 nM after 16 hrs by Western blot analysis. It counts as cell-based. (In general: A western blot detects proteins with antibodies after separation by electrophoresis.)
In test [6] the test system is Calu-1. Description: Inhibition of cell migration in human Calu-1 cells at 100 nM after 12 to 24 hrs by wound healing assay. It counts as functional, cell-based. Conditions: time lower […], time upper 24.0 hrs.
The target of test [7] is Signal transducer and activator of transcription 3 (Homo sapiens) (UniProt P40763). Description: Inhibition of STAT3 downstream signalling in human SR cells assessed as reduction in pSTAT3 level at 10 nM by Western blot analysis. The test is classed as cell-based.
Test [8] concerns MDA-MB-231. Description: Inhibition of cell migration in human MDA-MB-231 cells at 100 nM after 48 hrs by wound healing assay. The test is classed as functional, cell-based.
The target in test [9] is Signal transducer and activator of transcription 3 (Homo sapiens) (UniProt P40763). Description: Inhibition of STAT3 downstream signalling in human NCI-H2228 cells assessed as reduction in pSTAT3 level at 1 to 1000 nM by Western blot analysis. It counts as cell-based. The conditions noted are these: dose 1-1000 nM.
Test [10] deals with Calu-1. Description: Induction of G1 cell cycle arrest in human Calu-1 cells at 100 nM after 24 to 48 hrs. It counts as functional, cell-based. Conditions: time 24-48 hrs.
In test [11] the test system is Calu-1. Description: Induction of apoptosis in human Calu-1 cells at 100 nM after 72 hrs. The test is classed as functional, cell-based.
Test [12] relates to MDA-MB-231. Description: Inhibition of cell migration in human MDA-MB-231 cells assessed as wound confluence ratio at 500 nM after 48 hrs by wound healing assay. It counts as functional.
The next test has as its system HEK-293T. Description: Antiproliferative activity against human 293T cells overexpressing ALK G1202R mutant assessed as cell growth inhibition after 72 hrs. The test is classed as functional, cell-based.
Test [13] has as its system MDA-MB-231. Description: Induction of G1 cell cycle arrest in human MDA-MB-231 cells at 100 nM after 24 to 48 hrs. The test is classed as functional, cell-based. The conditions noted are these: time 24-48 hrs.
Test [14] concerns SR. Description: Induction of G1 cell cycle arrest in human SR cells at 100 nM after 24 to 48 hrs. The test is classed as functional, cell-based. The conditions noted are these: time 24-48 hrs.
For test [15], the system named is MDA-MB-231. Description: Induction of apoptosis in human MDA-MB-231 cells at 100 nM after 72 hrs. The test is classed as functional, cell-based.
For test [16], the system named is SR. Description: Antiproliferative activity against human SR cells assessed as inhibition of cell growth at 10 nM preincubated for 5 days followed by compound washout and measured on day 7 and 9 by CCK8 assay. It counts as functional, cell-based. Conditions: time 5.0 day. For orientation: Tetrazolium dyes change colour on reduction, which living cells bring about.

Activity calls are given as the source filed them. No cut-off for these calls is given here.

Signal transducer and activator of transcription 3 (Homo sapiens), sequence (P40763 whole entry): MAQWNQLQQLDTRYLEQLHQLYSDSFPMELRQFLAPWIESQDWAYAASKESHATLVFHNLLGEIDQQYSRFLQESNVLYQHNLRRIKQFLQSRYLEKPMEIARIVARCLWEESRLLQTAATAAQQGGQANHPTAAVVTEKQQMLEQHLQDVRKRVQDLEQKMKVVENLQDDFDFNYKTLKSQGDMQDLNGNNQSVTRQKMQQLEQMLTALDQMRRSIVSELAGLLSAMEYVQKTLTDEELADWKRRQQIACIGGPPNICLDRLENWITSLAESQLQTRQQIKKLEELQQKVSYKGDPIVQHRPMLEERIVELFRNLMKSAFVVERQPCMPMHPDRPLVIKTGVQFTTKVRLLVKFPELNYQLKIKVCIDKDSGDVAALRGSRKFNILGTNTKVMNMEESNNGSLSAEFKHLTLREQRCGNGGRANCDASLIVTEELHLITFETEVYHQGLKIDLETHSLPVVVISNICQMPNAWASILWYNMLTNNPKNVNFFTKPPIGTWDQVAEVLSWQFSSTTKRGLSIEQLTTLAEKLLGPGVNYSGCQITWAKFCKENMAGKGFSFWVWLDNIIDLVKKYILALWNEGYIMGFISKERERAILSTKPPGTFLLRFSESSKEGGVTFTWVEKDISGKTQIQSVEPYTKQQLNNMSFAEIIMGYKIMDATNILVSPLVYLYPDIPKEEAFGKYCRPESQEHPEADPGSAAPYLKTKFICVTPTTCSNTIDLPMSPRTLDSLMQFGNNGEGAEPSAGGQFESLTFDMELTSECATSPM
T1 sequence (Q9UM73 19-1620 limits assumed): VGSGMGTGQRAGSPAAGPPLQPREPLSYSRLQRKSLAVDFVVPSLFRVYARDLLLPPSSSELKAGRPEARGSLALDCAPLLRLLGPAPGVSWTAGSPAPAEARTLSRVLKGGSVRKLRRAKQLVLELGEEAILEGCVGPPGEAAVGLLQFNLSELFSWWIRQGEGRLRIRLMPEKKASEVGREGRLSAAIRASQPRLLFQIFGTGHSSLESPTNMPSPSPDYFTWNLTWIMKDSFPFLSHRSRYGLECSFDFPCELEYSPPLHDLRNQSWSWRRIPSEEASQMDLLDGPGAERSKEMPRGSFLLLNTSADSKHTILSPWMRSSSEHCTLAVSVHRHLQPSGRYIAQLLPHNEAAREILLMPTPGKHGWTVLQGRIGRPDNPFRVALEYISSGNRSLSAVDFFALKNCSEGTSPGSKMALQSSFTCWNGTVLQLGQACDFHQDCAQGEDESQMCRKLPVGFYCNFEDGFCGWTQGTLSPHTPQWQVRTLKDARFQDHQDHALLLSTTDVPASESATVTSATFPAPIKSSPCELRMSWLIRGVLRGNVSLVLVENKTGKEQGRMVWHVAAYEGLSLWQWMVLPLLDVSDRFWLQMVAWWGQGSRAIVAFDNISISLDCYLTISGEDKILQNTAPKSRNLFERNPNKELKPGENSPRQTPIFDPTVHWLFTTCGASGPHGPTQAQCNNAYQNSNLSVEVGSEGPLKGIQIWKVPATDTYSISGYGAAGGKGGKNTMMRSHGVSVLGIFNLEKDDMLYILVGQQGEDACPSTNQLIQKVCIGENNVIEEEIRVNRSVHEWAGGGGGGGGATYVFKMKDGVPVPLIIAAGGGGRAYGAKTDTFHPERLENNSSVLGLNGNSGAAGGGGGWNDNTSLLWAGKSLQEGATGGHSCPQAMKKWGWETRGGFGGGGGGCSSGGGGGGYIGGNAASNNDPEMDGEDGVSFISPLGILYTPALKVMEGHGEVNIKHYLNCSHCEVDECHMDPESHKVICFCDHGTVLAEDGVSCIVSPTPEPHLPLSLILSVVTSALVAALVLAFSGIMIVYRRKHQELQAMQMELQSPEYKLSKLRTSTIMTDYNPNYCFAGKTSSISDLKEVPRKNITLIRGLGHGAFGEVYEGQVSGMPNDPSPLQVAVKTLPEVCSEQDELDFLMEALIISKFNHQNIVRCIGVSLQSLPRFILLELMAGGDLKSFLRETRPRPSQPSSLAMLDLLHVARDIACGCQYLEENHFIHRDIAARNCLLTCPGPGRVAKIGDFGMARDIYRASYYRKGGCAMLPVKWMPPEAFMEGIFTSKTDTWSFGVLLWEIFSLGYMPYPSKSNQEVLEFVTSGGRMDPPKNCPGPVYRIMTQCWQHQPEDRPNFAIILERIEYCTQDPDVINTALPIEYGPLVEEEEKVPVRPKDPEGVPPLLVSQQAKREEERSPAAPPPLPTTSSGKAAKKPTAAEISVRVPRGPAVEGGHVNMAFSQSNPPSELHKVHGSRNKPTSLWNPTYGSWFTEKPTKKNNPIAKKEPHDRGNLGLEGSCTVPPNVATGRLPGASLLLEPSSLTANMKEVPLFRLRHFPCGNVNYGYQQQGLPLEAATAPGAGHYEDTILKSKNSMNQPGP
Focal adhesion kinase 1 (Homo sapiens), sequence (Q05397 2-1052 limits assumed): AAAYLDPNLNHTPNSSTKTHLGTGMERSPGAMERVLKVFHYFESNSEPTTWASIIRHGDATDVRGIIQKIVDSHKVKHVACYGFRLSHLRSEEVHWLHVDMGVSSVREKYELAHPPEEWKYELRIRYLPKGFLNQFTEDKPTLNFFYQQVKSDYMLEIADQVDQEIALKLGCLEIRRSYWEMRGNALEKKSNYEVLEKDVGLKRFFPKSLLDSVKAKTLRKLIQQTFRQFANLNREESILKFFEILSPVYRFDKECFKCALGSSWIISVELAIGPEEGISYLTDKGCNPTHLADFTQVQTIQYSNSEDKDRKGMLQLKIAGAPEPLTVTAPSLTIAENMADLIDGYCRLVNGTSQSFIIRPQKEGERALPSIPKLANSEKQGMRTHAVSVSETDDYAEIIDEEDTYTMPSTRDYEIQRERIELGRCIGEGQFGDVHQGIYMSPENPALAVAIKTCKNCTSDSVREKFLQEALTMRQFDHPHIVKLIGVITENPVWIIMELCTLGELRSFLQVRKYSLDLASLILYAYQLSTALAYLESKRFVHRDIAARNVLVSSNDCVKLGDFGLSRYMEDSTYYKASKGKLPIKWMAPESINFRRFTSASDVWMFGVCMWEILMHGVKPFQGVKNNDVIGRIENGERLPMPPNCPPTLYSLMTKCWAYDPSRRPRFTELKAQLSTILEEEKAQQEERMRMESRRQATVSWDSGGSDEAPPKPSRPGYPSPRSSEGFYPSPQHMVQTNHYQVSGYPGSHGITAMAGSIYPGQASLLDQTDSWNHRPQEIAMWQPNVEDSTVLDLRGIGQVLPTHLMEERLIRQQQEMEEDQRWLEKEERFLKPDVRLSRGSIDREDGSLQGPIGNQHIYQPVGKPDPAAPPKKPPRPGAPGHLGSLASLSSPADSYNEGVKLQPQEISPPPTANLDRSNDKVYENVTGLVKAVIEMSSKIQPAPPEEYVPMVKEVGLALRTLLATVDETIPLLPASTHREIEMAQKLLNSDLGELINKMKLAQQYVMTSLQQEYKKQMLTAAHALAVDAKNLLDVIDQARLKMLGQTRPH
Protein-tyrosine kinase 2-beta (Homo sapiens), sequence (Q14289 whole entry, looked up): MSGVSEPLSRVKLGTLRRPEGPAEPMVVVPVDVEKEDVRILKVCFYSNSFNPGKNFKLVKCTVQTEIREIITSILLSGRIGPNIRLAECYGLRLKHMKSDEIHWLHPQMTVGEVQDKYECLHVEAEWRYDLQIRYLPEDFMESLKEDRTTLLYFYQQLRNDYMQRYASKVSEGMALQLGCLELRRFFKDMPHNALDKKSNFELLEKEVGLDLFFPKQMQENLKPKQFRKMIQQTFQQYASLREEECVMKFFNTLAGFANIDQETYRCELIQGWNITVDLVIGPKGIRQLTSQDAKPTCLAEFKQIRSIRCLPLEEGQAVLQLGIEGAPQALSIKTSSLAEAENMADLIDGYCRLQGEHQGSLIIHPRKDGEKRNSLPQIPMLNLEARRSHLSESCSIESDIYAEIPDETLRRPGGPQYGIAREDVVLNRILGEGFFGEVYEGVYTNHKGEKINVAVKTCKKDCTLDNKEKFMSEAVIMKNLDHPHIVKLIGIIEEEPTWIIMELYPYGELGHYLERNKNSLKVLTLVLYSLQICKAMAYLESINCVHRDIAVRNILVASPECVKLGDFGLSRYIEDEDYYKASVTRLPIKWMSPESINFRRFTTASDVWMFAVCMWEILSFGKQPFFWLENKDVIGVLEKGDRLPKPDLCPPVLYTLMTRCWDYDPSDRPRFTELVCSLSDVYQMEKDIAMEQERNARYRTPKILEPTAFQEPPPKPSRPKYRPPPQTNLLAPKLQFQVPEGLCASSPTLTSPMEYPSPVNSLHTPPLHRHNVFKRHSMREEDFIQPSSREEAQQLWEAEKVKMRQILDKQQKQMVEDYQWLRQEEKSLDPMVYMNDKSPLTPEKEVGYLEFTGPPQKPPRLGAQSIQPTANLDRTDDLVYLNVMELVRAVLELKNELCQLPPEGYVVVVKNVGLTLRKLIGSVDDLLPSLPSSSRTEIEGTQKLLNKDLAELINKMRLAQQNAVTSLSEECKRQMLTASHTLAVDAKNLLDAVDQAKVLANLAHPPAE

Consider `COc1cc(N2CCC(N3CCN(C(=O)CCOCCOCCOCCOCCNc4cccc5c4C(=O)N(C4CCC(=O)NC4=O)C5=O)CC3)CC2)ccc1Nc1ncc(Cl)c(Nc2ccccc2P(C)(C)=O)n1` (stereo not drawn), for which the IC50 (in general, the concentration that gives 50% inhibition) with SR [1] is 11.2 nM.

For the molecule `COc1cc(N2CCC(N3CCN(C(=O)CCCCCNc4cccc5c4C(=O)N(C4CCC(=O)NC4=O)C5=O)CC3)CC2)ccc1Nc1ncc(Cl)c(Nc2ccccc2P(C)(C)=O)n1` (stereo not drawn), the IC50 with SR [1] is 3.3 nM.

As to `COc1cc(N2CCC(N3CCN(C(=O)CCOCCOCCOCCOCCOCCNc4cccc5c4C(=O)N(C4CCC(=O)NC4=O)C5=O)CC3)CC2)ccc1Nc1ncc(Cl)c(Nc2ccccc2P(C)(C)=O)n1` (stereo not drawn), the IC50 with SR [1] was found to be 14 nM.

As to `C[C@@H]1C[C@@H]([C@H](O)CC2CC(=O)NC(=O)C2)C(=O)[C@@H](C)C1`, the outcome in [2], in test [3] and in test [4] was Active.

Consider `COc1cc(N2CCC(N3CCN(C(=O)CCOCCOCCNc4cccc5c4C(=O)N(C4CCC(=O)NC4=O)C5=O)CC3)CC2)ccc1Nc1ncc(Cl)c(Nc2ccccc2P(C)(C)=O)n1` (stereo not drawn), for which, in the test with SR [1], the IC50 worked out at 3.6 nM.

Turning to `COc1cc(N2CCC(N3CCN(C(=O)CNc4cccc5c4C(=O)N(C4CCC(=O)N(C)C4=O)C5=O)CC3)CC2)ccc1Nc1ncc(Cl)c(Nc2ccccc2P(C)(C)=O)n1` (stereo not drawn), in the test with SR [1], the IC50 is 16.3 nM. The outcome in [5] was Active.

Consider `COc1cc(N2CCC(N3CCN(C)CC3)CC2)ccc1Nc1ncc(Cl)c(Nc2ccccc2P(C)(C)=O)n1` [BRIGATINIB], for which the inhibition entry (in the test on Calu-1 [6]; in the test on MDA-MB-231 [8]; in [9]) was “inactive” in each case. The inhibition (usually the drop in the measured response relative to a control, in per cent) in test [7] is “Active”. Also, the IC50 in the test on SR [1] was determined as 3.3 nM; in the test on HEK-293T, 850 nM. The result in the test on Calu-1 [10], in the test with Calu-1 [11], in the test on MDA-MB-231 [13], with MDA-MB-231 [15] and in the test with SR [16] was inactive. For the same molecule, in the test with MDA-MB-231 [12], the inhibition at 0.5 µM amounted to 56%. Moreover, the result with SR [14] was Active.

For `COc1cc(N2CCC(N3CCN(C(=O)CCOCCNc4cccc5c4C(=O)N(C4CCC(=O)NC4=O)C5=O)CC3)CC2)ccc1Nc1ncc(Cl)c(Nc2ccccc2P(C)(C)=O)n1` (stereo not drawn), the IC50 in the test with SR [1] came out at 3.8 nM.

Regarding `COc1cc(N2CCC(N3CCN(C(=O)CCOCCOCCOCCNc4cccc5c4C(=O)N(C4CCC(=O)NC4=O)C5=O)CC3)CC2)ccc1Nc1ncc(Cl)c(Nc2ccccc2P(C)(C)=O)n1` (stereo not drawn), the 50% inhibitory concentration (IC50) in the test with SR [1] amounted to 5.3 nM.

For `COc1cc(N2CCC(N3CCN(C(=O)CCCNc4cccc5c4C(=O)N(C4CCC(=O)NC4=O)C5=O)CC3)CC2)ccc1Nc1ncc(Cl)c(Nc2ccccc2P(C)(C)=O)n1` (stereo not drawn), in the test on SR [1], the IC50 is 2.9 nM.

Turning to `COc1cc(N2CCC(N3CCN(C(=O)CCNc4cccc5c4C(=O)N(C4CCC(=O)NC4=O)C5=O)CC3)CC2)ccc1Nc1ncc(Cl)c(Nc2ccccc2P(C)(C)=O)n1` (stereo not drawn), in the test on SR [1], the IC50 was found to be 9.6 nM.

Regarding `COc1cc(N2CCC(N3CCN(C(=O)CCCCCCNc4cccc5c4C(=O)N(C4CCC(=O)NC4=O)C5=O)CC3)CC2)ccc1Nc1ncc(Cl)c(Nc2ccccc2P(C)(C)=O)n1` (stereo not drawn), the IC50 in the test on SR [1] was 4.8 nM.

Consider `COc1cc(N2CCC(N3CCN(C(=O)CCCCNc4cccc5c4C(=O)N(C4CCC(=O)NC4=O)C5=O)CC3)CC2)ccc1Nc1ncc(Cl)c(Nc2ccccc2P(C)(C)=O)n1` (stereo not drawn), for which the IC50 with SR [1] turned out to be 7.4 nM.

The values above are taken from ChEMBL document CHEMBL5034001 (J Med Chem, 2021).
